Measurements as given in EP0928340B1, “INVASION-INHIBITORS FOR USE IN WOUND HEALING AND CANCER” (THE REGENTS OF THE UNIVERSITY OF MICHIGAN, priority 1996, dated 2009).
Read-outs that look alike come from different tables or passages of the source.

Tests used:
[1] = tested on: DU-145 prostate cancer cells; assay: SU-ECM in vitro invasion assay, human prostate cancer cells; assay type: cell-based; conditions: for IC100: Homo sapiens, DU-145, read-out: concentration that completely (fully) inhibits invasion
Experimental: Adult Strongylocentrotus purpuratus sea urchins were obtained from Pacific BioMarine, and their embryos were cultured to the early pluteus stage in artificial sea water at 15°C. SU-ECM were prepared from them by treatment with nonionic detergent and strerilized by dilution in the appropriate media.
[…] When appropriate, purified bovine plasma fibronectin (Sigma), purified 120 kDa chymotryptic fragment (Gibco BRL). PHSRN or PHSCN peptides (synthesized at the Biomedical Research Core Facilities of the University of Michigan), or GRGDSP or GRGESP peptides (Gibco BRL) were added to the resuspended cells prior to placement of the cells on SU-ECM. In each well of a plate used for an invasion assay, SU-ECM were placed in 0.5 ml of the appropriate medium, and 0.5ml of the resuspended cells dropped on their exterior surfaces. Invasion assays were incubated 1 to 16 hours prior to assay. If some circumstances, invasion assays were fixed in phosphate-buffered saline (PBS) with 2% formaldehyde for 5 minutes at room temperature, then rinsed into PBS.
Invasion assays were coded and scored blindly by microscopic examination under phase contrast at 200- and 400-fold magnification. Each cell contacting an SU-ECM was scored for its position relative to the exterior or interior surfaces. A cell was judged to have invaded if it was located on an interior surface below the focal plane passing through the upper surface of the SU-ECM, but above the focal plane passing through its lower surface. The minimum viability of the cells in each assay was always ascertained at the time of assay by determining the fraction of spread, adherent cells on the bottom of each well scored.
An invasion frequency is defined as the fraction of cells in contact with basement membranes which were located in their interiors at the time of assay. Thus, an invasion frequency of 1 denotes invasion by 100% of the cells in contact with basement membranes. Invasion frequencies were determined multiple times for each cell type assayed. For each type of cell assayed the mean and standard deviation of the invasion frequencies were calculated.
The method of Example 4 is employed, with the addition of varying concentrations of the PHSCN peptide.
Thus, the procedure in Example 4 provides a method for determining the inhibitory potential of the PHSCN peptide by comparing the number of cell invasions in the presence of the PHSCN peptide, with the number of cell invasions in the absence of the PHSCN peptide.
In this example, in vitro invasion of cancer cells into substrates is inhibited with peptides that have been chemically modified with protecting groups and peptides having protecting groups as well as the modification wherein an L-amino acid has been replaced with the D-isomer. PHSCN peptide, blocked PHSCN peptide, and blocked PHSCN peptide with a D-cysteine instead of the L-isomer, were tested (Figure 11).
In this example, in vitro invasion of cancer cells into substrates is inhibited with non-peptide mimetics in comparison with chemically modified peptides (on a molar basis). The peptides of Example 14 (i.e. peptides chemically modified with protecting groups and peptides having protecting groups as well as the modification wherein an L-amino acid has been replaced with the D-isomer) were compared with the non-peptide mimetics DL-N-Acetylhomocysteinethiolactone, Thiobutyrolactone, and Mercaptopropionic acid, in order to investigate the structure activity relationship for invasion inhibition by interaction with the PHSRN-binding pocket of the α5β1 fibronectin receptor (Figure 12)

[2] = target: α5β1 integrin fibronectin receptor (human) (UniProt P08648); assay: cell-based or functional assay
Sequence of UniProt P08648 (P08648 42-1049, chain 1 of 2): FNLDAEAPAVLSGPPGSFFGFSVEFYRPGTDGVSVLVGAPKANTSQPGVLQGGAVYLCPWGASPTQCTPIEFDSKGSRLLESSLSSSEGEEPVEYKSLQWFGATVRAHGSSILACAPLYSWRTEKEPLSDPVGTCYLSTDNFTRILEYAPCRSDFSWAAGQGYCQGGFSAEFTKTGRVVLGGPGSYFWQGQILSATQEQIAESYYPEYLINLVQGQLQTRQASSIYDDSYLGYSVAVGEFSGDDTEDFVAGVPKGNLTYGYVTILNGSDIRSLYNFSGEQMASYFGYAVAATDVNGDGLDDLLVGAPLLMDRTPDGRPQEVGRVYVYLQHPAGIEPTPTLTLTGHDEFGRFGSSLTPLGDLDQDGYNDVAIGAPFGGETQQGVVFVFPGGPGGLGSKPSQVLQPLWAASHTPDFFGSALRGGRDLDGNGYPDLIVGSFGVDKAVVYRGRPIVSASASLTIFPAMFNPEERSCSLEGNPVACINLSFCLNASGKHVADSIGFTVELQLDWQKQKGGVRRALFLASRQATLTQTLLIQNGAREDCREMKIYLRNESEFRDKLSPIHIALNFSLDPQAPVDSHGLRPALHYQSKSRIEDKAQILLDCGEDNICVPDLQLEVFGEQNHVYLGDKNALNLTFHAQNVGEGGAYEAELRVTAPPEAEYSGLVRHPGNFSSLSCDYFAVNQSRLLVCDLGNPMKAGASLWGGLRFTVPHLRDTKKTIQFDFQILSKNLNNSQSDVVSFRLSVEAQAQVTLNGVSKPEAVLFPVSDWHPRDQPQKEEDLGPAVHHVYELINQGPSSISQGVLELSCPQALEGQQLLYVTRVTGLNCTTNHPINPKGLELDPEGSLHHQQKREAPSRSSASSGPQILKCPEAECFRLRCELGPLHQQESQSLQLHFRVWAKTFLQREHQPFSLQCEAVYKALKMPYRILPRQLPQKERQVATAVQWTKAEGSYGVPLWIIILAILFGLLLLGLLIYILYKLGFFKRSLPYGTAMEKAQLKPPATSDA
Sequence of UniProt P08648 (P05556 21-798, chain 2 of 2, further chain): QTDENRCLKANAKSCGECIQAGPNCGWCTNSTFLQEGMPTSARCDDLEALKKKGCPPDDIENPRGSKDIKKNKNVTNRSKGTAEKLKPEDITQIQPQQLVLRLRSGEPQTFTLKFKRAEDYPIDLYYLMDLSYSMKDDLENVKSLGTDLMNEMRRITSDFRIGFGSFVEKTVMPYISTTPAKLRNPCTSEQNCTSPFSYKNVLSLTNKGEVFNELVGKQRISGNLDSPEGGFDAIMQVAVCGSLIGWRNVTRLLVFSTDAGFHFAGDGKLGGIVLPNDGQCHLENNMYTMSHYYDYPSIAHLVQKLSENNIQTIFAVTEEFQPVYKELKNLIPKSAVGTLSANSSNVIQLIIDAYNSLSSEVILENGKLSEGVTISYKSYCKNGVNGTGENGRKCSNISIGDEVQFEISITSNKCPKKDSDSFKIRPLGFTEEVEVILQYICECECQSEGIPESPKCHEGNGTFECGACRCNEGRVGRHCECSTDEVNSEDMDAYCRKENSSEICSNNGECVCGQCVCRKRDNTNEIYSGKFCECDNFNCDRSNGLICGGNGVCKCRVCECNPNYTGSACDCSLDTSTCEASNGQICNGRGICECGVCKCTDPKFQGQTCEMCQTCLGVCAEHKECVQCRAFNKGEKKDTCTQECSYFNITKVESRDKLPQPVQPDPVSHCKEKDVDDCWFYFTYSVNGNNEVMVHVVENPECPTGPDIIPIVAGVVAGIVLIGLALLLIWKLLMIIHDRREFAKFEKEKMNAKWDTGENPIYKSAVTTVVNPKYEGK

[3] = target: α5β1 integrin fibronectin receptor (human) (UniProt P08648); assay: cell-based or functional assay; remark: listed apart in the source
[4] = invasion inhibition, molar basis (Figure 12)

Compound: CC(=O)NC1CCSC1=O (racemic) [DL-N-Acetylhomocysteinethiolactone]
- IC100 [1]: 0.6 µM
- less active than blocked PHSCN [1, 4]: about 10 fold
- more active than the unblocked PHSCN peptide [1, 4]: about 3 fold

Compound: O=C(O)CCS [Mercaptopropionic acid]
- reduction of DU145 invasion ([1]; at any of the concentrations tested, medium with 10% serum (Figure 12)): ≤ 20%
- less active in invasion inhibition than thiobutyrolactone [1, 4]: at least 100 times
- less active than the unblocked PHSCN peptide [1, 4]: 1500 times

Compound: O=C1CCCS1 [Thiobutyrolactone]
- IC100 [1]: 30 µM
- less active than N-acetylhomocysteinethiolactone [1, 4]: 50 fold
- less active than blocked PHSCN [1, 4]: about 500 fold
- less active than the unblocked PHSCN peptide [1, 4]: 15 times

Compound: Ac-PHSCN-NH2 [Ac-PHSCN-NH2]
- concentration that completely inhibits invasion ([1]; medium with 10% serum (Example 14, Figure 11)): approximately 1.3 ng/ml
- concentration that completely (fully) inhibits invasion ([1]; medium with 10% serum (Example 15, Figure 12)): approximately 0.06 µM

Compound: Ac-PHSCN-NH2 peptide
- concentration giving complete inhibition of invasion of metastatic DU145 cells into SU-ECM in medium with 10% serum [2]: 0.06 µM
- concentration giving complete inhibition of invasion of metastatic DU145 cells into SU-ECM in medium with 10% serum [3]: 1.3 ng/mL

Compound: PHSCN peptide
- concentration giving complete inhibition of invasion of metastatic DU145 cells into SU-ECM in medium with 10% serum [2]: 2 µM
- concentration giving complete inhibition of invasion of metastatic DU145 cells into SU-ECM in medium with 10% serum [3]: 3 ng/mL
